Measured values: US20100317734A1, “FREE FATTY ACID BLENDS AND USE THEREOF” (priority 2007, published 2010)

System: Staphylococcus aureus
Assay: Contact viability assay, 2 minutes exposure
Assay type: cell-based
Conditions: on its own
Description: The assay was conducted in glass tubes and all test components were equilibrated at the teat temperature in a water bath before inoculation and during the suspension period (2 minutes). The inoculum is an 18 hour culture of Staphylococcus aureus grown in Brain Heart Infusion Broth. The reduction in CFU's are illustrated in FIG. 4. FIG. 7 illustrates the antimicrobial effect of emulsions of caprylic:oleic, capric:oleic and lauric:oleic with varying concentration in oleic acid. The emulsions were prepared by method 2 in Example 3.

CCCCCCCC/C=C\CCCCCCCC(=O)O [oleic acid]
antimicrobial effect: no significant antimicrobial effect
